Experimental findings from the supplement of paper PMC12463676, “Small-molecule dissolution of stress granules by redox modulation benefits ALS models” (Nature Chemical Biology, 2025) are described below.

Compound in assay [1]: NC(=O)CCCCC1CCSS1 [lipoamide]
The assay is described as follows: thermal stability z-score vs DMSO; higher = more thermally stabilized by treatment. The settings on record: HeLa, lipoamide concentration 100 µM. As for the experimental part: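 Cellular thermal proteome profiling in HeLa cells. Cells were treated with 100 µM lipoamide for 1 h, with or without 1 mM arsenate for a further 1 h, then heated to ten temperatures (37-66.3 °C), and soluble protein was quantified by TMT mass spectrometry relative to 0.1% DMSO controls. The thermal stability score (sum of log2 fold changes minus the abundance score) was transformed to a z-score; mean of n = 3 experiments.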

Compound in assay [2]: O=[As]([O-])(O)O.[K+] [potassium arsenate]
The assay is described as above. As to conditions: HeLa; arsenate concentration 1 mM. Here is the method: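 Cellular thermal proteome profiling in HeLa cells treated with 1 mM arsenate for 1 h (DMSO pretreatment), heated to ten temperatures (37-66.3 °C). Soluble protein was quantified by TMT mass spectrometry relative to DMSO controls; the thermal stability score was transformed to a z-score; mean of n = 3 experiments.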

The mark [3] stands for this setting: arsenate co-treatment: 1 mM arsenate 1 h.
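Also: each temperature applied for 3 min, abundance score taken as mean log2 fold change at the two lowest temperatures, z-score obtained by mean subtraction and division by SD.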

UniProt Q8NBQ5, sequence (Q8NBQ5 whole entry): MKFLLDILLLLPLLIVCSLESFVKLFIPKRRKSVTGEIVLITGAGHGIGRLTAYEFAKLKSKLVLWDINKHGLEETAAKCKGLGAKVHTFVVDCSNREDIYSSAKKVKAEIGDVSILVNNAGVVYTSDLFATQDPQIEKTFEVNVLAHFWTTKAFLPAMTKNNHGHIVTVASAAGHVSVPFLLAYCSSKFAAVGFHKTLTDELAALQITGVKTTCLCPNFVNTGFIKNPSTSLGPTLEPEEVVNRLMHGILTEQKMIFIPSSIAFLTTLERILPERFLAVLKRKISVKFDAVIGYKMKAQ
UniProt Q9BSF8, sequence (Q9BSF8 whole entry): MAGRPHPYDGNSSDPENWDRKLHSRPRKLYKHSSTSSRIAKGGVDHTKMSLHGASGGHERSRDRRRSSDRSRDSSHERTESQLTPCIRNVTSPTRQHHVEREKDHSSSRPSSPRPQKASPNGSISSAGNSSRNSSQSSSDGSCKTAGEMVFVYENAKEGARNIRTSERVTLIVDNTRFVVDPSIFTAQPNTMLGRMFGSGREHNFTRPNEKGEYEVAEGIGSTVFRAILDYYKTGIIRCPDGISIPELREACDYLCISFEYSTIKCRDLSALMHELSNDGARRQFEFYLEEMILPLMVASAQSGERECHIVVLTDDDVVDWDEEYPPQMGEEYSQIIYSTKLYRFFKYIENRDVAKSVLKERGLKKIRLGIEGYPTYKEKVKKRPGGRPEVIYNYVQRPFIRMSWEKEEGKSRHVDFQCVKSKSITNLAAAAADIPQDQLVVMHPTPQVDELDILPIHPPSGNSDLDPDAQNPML
UniProt Q9H0S4, sequence (Q9H0S4 whole entry): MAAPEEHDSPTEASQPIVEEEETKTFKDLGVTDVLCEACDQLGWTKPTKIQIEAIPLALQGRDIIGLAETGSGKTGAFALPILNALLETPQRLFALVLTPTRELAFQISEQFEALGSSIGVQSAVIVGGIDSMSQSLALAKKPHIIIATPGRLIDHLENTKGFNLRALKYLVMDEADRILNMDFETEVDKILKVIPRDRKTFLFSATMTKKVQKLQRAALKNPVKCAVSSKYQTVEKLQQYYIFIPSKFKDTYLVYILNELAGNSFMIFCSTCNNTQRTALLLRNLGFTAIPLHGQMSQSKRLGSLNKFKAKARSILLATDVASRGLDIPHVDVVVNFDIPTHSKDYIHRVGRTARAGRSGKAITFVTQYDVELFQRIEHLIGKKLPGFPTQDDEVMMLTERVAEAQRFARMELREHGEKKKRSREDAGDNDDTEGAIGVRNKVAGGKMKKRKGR
UniProt Q9UK53, sequence (Q9UK53 whole entry): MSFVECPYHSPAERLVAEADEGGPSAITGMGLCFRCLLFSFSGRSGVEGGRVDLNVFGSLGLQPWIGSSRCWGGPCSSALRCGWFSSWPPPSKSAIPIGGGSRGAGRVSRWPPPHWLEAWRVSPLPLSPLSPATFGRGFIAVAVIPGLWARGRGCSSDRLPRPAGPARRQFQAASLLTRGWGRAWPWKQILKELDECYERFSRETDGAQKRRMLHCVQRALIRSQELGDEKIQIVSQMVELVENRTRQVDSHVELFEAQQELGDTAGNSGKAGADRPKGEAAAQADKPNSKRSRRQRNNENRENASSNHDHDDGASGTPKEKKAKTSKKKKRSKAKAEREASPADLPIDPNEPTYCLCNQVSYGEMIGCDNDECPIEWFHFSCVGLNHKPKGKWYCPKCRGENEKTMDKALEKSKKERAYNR
UniProt Q8N0X7, sequence (Q8N0X7 whole entry): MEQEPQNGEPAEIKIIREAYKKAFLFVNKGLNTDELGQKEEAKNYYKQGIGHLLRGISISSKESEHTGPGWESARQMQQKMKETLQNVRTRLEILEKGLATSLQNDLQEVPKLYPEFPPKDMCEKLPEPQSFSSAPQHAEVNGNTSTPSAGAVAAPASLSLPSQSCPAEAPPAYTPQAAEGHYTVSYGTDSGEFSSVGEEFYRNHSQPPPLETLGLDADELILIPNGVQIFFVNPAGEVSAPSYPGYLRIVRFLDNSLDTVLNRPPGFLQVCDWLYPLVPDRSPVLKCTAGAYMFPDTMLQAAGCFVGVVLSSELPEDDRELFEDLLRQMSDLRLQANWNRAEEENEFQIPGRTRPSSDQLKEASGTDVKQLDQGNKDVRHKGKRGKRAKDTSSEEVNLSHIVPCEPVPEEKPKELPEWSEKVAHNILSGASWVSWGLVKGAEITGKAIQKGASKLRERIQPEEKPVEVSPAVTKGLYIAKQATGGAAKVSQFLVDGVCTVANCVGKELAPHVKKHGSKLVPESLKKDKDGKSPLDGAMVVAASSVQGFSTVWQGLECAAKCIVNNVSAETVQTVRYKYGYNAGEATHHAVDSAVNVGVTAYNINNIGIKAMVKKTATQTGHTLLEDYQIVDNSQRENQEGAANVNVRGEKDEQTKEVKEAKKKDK
UniProt Q14974, sequence (Q14974 whole entry): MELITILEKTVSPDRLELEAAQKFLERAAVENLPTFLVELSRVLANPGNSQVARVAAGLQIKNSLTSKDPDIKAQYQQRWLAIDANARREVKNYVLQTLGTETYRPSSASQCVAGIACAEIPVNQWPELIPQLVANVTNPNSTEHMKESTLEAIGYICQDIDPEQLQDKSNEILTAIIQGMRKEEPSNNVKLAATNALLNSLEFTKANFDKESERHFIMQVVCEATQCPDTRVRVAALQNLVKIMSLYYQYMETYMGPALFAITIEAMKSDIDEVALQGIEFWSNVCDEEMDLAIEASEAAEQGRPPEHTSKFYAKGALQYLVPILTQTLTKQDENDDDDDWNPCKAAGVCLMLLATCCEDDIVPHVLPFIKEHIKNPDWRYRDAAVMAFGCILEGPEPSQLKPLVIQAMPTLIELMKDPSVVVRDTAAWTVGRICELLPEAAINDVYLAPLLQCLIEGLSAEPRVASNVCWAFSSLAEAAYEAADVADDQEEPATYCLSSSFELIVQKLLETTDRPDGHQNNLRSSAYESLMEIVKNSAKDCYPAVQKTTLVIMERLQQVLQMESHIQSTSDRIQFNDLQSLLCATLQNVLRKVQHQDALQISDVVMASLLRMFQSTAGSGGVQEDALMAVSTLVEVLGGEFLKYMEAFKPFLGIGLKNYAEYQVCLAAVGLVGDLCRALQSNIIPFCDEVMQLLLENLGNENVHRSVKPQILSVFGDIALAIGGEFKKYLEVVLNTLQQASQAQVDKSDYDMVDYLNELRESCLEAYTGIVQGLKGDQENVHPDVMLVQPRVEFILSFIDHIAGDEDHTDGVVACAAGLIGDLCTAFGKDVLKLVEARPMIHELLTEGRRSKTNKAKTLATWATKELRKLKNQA
UniProt Q9BVC3, sequence (Q9BVC3 whole entry): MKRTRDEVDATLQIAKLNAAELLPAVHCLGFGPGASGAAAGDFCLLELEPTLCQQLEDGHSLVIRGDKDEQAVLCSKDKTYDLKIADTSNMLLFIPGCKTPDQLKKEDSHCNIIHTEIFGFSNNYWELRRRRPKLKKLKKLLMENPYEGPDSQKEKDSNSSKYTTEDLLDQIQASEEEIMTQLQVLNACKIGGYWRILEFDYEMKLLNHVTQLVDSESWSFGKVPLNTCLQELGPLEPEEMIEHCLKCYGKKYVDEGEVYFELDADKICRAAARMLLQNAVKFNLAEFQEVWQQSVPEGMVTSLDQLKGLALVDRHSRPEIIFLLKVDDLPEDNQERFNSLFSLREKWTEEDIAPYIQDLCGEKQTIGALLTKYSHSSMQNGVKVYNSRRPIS
UniProt P06733, sequence (P06733 whole entry): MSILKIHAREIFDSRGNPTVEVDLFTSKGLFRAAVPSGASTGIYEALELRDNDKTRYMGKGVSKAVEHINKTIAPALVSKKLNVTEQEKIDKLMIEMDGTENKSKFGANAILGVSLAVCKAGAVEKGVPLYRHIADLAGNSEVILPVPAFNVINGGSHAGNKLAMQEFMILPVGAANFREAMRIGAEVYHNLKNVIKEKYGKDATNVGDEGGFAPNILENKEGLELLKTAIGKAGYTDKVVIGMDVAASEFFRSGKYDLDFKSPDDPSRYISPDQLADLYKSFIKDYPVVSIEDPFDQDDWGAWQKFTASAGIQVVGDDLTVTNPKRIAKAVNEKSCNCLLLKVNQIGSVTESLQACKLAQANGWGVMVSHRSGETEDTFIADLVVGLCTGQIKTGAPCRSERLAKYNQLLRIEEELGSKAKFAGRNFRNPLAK
UniProt Q13426, sequence (Q13426 whole entry): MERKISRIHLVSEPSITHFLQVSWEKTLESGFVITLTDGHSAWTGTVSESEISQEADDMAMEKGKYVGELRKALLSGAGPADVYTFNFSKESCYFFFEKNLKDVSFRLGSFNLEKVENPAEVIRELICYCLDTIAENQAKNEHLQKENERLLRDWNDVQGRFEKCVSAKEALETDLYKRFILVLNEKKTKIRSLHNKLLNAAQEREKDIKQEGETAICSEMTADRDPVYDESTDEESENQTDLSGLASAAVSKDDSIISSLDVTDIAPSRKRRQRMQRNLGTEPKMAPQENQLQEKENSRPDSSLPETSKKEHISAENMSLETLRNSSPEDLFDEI
UniProt Q13485, sequence (Q13485 whole entry): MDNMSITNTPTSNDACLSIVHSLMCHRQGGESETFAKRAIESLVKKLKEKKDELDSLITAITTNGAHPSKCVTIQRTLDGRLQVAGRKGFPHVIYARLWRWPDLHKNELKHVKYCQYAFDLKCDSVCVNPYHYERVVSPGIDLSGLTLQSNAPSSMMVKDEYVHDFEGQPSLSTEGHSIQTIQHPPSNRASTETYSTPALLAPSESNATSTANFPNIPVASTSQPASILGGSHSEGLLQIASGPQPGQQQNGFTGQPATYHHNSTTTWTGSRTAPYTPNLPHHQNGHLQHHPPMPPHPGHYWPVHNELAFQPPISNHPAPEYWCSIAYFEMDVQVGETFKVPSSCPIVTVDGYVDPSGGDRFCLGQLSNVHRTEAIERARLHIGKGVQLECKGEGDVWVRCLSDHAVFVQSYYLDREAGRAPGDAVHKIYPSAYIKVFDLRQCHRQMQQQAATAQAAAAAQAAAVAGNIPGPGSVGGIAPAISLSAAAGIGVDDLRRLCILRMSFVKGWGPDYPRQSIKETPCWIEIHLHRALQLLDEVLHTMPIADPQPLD

In the case of TMEM161A (UniProt Q9NX61), the thermal stability z-score in assay [1] (setting [3]) was -0.0739; in assay [1] (arsenate co-treatment: none), -0.0906; in assay [2] it was 0.0752.

Take SMAD4 (UniProt Q13485): the thermal stability z-score in assay [1] (setting [3]) was -0.233; in assay [1] (arsenate co-treatment: none), -0.519; in assay [2] it was -0.746.

On to MAPK8 (UniProt P45983), for which the thermal stability z-score in assay [1] (setting [3]) is 0.24; in assay [1] (arsenate co-treatment: none), 0.00773; in assay [2] it was -0.00139.

For NAA20 (UniProt P61599), the thermal stability z-score in assay [1] (setting [3]) came to 0.753; in assay [1] (arsenate co-treatment: none), 0.153; in assay [2] it was 0.0823.

For the target PLOD2 (UniProt O00469), the thermal stability z-score in assay [1] (setting [3]) is -3.92; in assay [1] (arsenate co-treatment: none), -3.35; in assay [2] it was 0.877.

In the case of VAMP8 (UniProt Q9BV40), the thermal stability z-score in assay [1] (setting [3]) came out at 1.3; in assay [1] (arsenate co-treatment: none), 1.28; in assay [2], 0.587.

On to C9ORF40 (UniProt Q8IXQ3), for which the results for the thermal stability z-score in assay [1] (setting [3]), in assay [1] (arsenate co-treatment: none) and in assay [2] were -0.129, 0.33 and 0.0372, respectively.

PSMA7 (UniProt O14818): the thermal stability z-score in assay [1] (setting [3]) was 0.939; in assay [1] (arsenate co-treatment: none), 0.898; in assay [2], 0.38.

As to NIPSNAP1 (UniProt Q9BPW8), the thermal stability z-score is -1.48 in assay [1] (setting [3]), -0.204 in assay [1] (arsenate co-treatment: none) and -0.872 in assay [2].

For the target ENO1 (UniProt P06733), the thermal stability z-score in assay [1] (setting [3]) is 0.588; in assay [1] (arsenate co-treatment: none), 0.278; in assay [2], -0.0281.

For ARHGAP5 (UniProt Q13017), the thermal stability z-score in assay [1] (setting [3]) is 0.182; in assay [1] (arsenate co-treatment: none), -0.703; in assay [2], -0.265.

For MRPL37 (UniProt Q9BZE1), the thermal stability z-score in assay [1] (setting [3]) was -0.398; in assay [1] (arsenate co-treatment: none) it was -0.403; in assay [2], -0.0807.

With VPS33A (UniProt Q96AX1), the thermal stability z-score was -0.0394 in assay [1] (setting [3]), -0.0312 in assay [1] (arsenate co-treatment: none) and -0.027 in assay [2].

As for PCNP (UniProt Q8WW12), the thermal stability z-score in assay [1] (setting [3]) is 0.549; in assay [1] (arsenate co-treatment: none), 0.442; in assay [2], 0.289.

Turning to ING1 (UniProt Q9UK53), the thermal stability z-score was 1.11 in assay [1] (setting [3]), 0.466 in assay [1] (arsenate co-treatment: none) and -1.34 in assay [2].

UBE2J1 (UniProt Q9Y385): the thermal stability z-score in assay [1] (setting [3]) is -0.909; in assay [1] (arsenate co-treatment: none) it was -0.103; in assay [2], 0.198.

Take ALDH9A1 (UniProt P49189): the thermal stability z-score in assay [1] (setting [3]) was -0.257; in assay [1] (arsenate co-treatment: none) it was -0.212; in assay [2], -1.15.

Take MYADM (UniProt Q96S97): the thermal stability z-score in assay [1] (setting [3]) amounted to 0.0599; in assay [1] (arsenate co-treatment: none), 0.353; in assay [2] it was 1.34.

Consider SSR1 (UniProt P43307), for which the figures for the thermal stability z-score in assay [1] (setting [3]), in assay [1] (arsenate co-treatment: none) and in assay [2] were -1.49, -0.782 and -1.26, respectively.

Turning to RPL4 (UniProt P36578), the thermal stability z-score in assay [1] (setting [3]) is 0.486; in assay [1] (arsenate co-treatment: none), 0.0127; in assay [2] it was -0.66.

Take CBR1 (UniProt P16152): the thermal stability z-score in assay [1] (setting [3]) stood at 0.136; in assay [1] (arsenate co-treatment: none), 0.208; in assay [2], 0.879.

Regarding C17ORF75 (UniProt Q9HAS0), the thermal stability z-score in assay [1] (setting [3]) was 0.0162; in assay [1] (arsenate co-treatment: none) it was -0.0686; in assay [2], -0.0267.

With HRSP12 (UniProt P52758), the thermal stability z-score came to 0.703 in assay [1] (setting [3]), 0.341 in assay [1] (arsenate co-treatment: none) and 0.206 in assay [2].

With MCMBP (UniProt Q9BTE3), the thermal stability z-score was -0.129 in assay [1] (setting [3]), -0.0734 in assay [1] (arsenate co-treatment: none) and 0.409 in assay [2].

As for GPR126 (UniProt Q86SQ4), the thermal stability z-score in assay [1] (setting [3]) was -1.33; in assay [1] (arsenate co-treatment: none), -1.02; in assay [2], -0.42.

KPNB1 (UniProt Q14974): the thermal stability z-score in assay [1] (setting [3]) was -0.211; in assay [1] (arsenate co-treatment: none), 0.374; in assay [2], 0.0471.

With TUBGCP3 (UniProt Q96CW5), the thermal stability z-score came out at 0.238 in assay [1] (setting [3]), 0.127 in assay [1] (arsenate co-treatment: none) and 0.123 in assay [2].

For DSCC1 (UniProt Q9BVC3), the figures for the thermal stability z-score in assay [1] (setting [3]), in assay [1] (arsenate co-treatment: none) and in assay [2] were 0.0551, 0.0324 and -0.199, respectively.

In the case of NFATC2IP (UniProt Q8NCF5), the thermal stability z-score in assay [1] (setting [3]) was -0.124; in assay [1] (arsenate co-treatment: none), -0.127; in assay [2], -0.254.

SPG20 (UniProt Q8N0X7): the thermal stability z-score in assay [1] (setting [3]) came to 0.715; in assay [1] (arsenate co-treatment: none), 0.609; in assay [2], 0.193.

Turning to RNPS1 (UniProt Q15287), the thermal stability z-score in assay [1] (setting [3]) was 1.23; in assay [1] (arsenate co-treatment: none) it was 0.438; in assay [2], 0.528.

For the target XPO6 (UniProt Q96QU8), the thermal stability z-score in assay [1] (setting [3]) was 0.0641; in assay [1] (arsenate co-treatment: none), 0.00854; in assay [2] it was -0.339.

With TRIM16 (UniProt O95361), the figures for the thermal stability z-score in assay [1] (setting [3]), in assay [1] (arsenate co-treatment: none) and in assay [2] were -0.0466, -0.0815 and -0.0294, respectively.

On to ALG13 (UniProt Q9NP73), for which the figures for the thermal stability z-score in assay [1] (setting [3]), in assay [1] (arsenate co-treatment: none) and in assay [2] were 0.336, 0.571 and -0.739, respectively.

As to XRCC4 (UniProt Q13426), the figures for the thermal stability z-score in assay [1] (setting [3]), in assay [1] (arsenate co-treatment: none) and in assay [2] were 2.01, 1.89 and 1.24, respectively.

Consider ATP6V1H (UniProt Q9UI12), for which the results for the thermal stability z-score in assay [1] (setting [3]), in assay [1] (arsenate co-treatment: none) and in assay [2] were 0.0391, -0.146 and -0.0897, respectively.

Consider PLEKHA1 (UniProt Q9HB21), for which the figures for the thermal stability z-score in assay [1] (setting [3]), in assay [1] (arsenate co-treatment: none) and in assay [2] were -0.0949, -0.105 and -0.185, respectively.

In the case of BTBD10 (UniProt Q9BSF8), the thermal stability z-score was 0.00662 in assay [1] (setting [3]), 0.0899 in assay [1] (arsenate co-treatment: none) and -0.162 in assay [2].

On to UCK2 (UniProt Q9BZX2), for which the values for the thermal stability z-score in assay [1] (setting [3]), in assay [1] (arsenate co-treatment: none) and in assay [2] were -0.0152, 0.141 and 0.093, respectively.

In the case of HSD17B11 (UniProt Q8NBQ5), the thermal stability z-score in assay [1] (setting [3]) was 0.563; in assay [1] (arsenate co-treatment: none), 0.342; in assay [2], 0.265.

Consider DDX47 (UniProt Q9H0S4), for which the thermal stability z-score in assay [1] (setting [3]) is 1.72; in assay [1] (arsenate co-treatment: none), 0.253; in assay [2], 0.634.

LMO4 (UniProt P61968): the thermal stability z-score stood at 0.548 in assay [1] (setting [3]), 0.0182 in assay [1] (arsenate co-treatment: none) and 0.164 in assay [2].
